Data: doi:10.1101/2024.08.19.608619, “Discovery of potent SARS-CoV-2 nsp3 macrodomain inhibitors uncovers lack of translation to cellular antiviral response” (bioRxiv, 2024)
In brackets after ≈: the same amount, converted by molar mass. Several values for one entry are separate records, joined by “and”; a condition that tells them apart may be missing. Equal values may be shown once. Read-outs that look alike come from different tables or passages of the source.

Key:
in vitro [1] = details: human, hela-ace2 cells, 50.0
in vitro [2] = assay: in vitro; set-up: Cytotoxicity in iPSC-derived pneumocytes, CC50; details: human, ipsc-derived pneumocytes, read-out: 50.0
From the text: Finally, we consider the hypothesis that interferon response triggers ADP-ribosylation, thus profiling the compounds in enhanced and physiologically relevant interferon environments could reveal detectable antiviral effects. […] Furthermore, HeLa-ACE2 cells, and all cancerous cell lines, display defective innate immune response ([1]). As such, we also assess our compound in a primary-like iPSC-derived pneumocyte system (Figure 7C), showing likewise a lack of antiviral activity in this physiologically relevant innate immunity system.

[3] = system: SARS-CoV-2, isolate USA-WA1/2020; assay: microbe, parasite or virus in culture; format: cell-based; details: HeLa-ACE2 SARS-CoV-2 antiviral effect without P-gp inhibitor; for perc_max_measured: maximum measured response of dose series; for EC50: read-out: ec50; for EC90: read-out: ec90; for perc_min_measured: minimum measured response of dose series
iPSC pneumocytes = iPSC pneumocytes cytotoxicity; format: cell-based; details: for perc_max_measured: highest measured response of the dose series; for perc_min_measured: lowest measured response of the dose series
From the text: Supplement media-1.zip/Cytotoxicity.csv, table | column: cc10; cc50; perc_min_measured; perc_max_measured

HeLa-ACE2 cells = details: for perc_max_measured: highest measured response of the dose series; for perc_min_measured: lowest measured response of the dose series
SARS-CoV-2 = assay: Antiviral effect in iPSC-derived pneumocyte system; format: cell-based; details: iPSC pneumocytes SARS-CoV-2 antiviral effect; for perc_max_measured: maximum measured response of dose series; for perc_min_measured: minimum measured response of dose series
[4] = In vitro kinetic solubility; details: In vitro kinetic solubility, ph 7.4
[5] = Hepatic microsomal stability, MLM; format: in vitro ADME
LogD = details: pH 7.4; In vitro LogD
[6] = Permeability Papp (AB) MDR1/MDCKII; details: for papp_a_to_b_mean: A to B; for perc_recovery_a_to_b_mean / perc_recovery_a_to_b_inhibitor_mean: recovery A to B; for papp_b_to_a_mean: B to A; for perc_recovery_b_to_a_mean / perc_recovery_b_to_a_inhibitor_mean: recovery B to A; for perc_recovery_a_to_b_inhibitor_mean / perc_recovery_b_to_a_inhibitor_mean: MDR1-MDCKII
[7] = Hepatic microsomal stability, HLM; format: in vitro ADME, human; details: In vitro human liver microsomal stability; for perc_remaining_no_cofactor: no cofactor
[8] = protocol iPSC pneumocytes cytotoxicity
[9] = protocol HeLa-ACE2 cytotoxicity
[10] = In vitro mouse liver microsomal stability
[11] = In vitro MDR1-MDCKII permeability, mean
[12] = In vitro mouse liver microsomal stability, no cofactor
[13] = In vitro MDR1-MDCKII permeability, no inhibitor

With `Cc1ncc(-c2cc3c(N[C@@H](c4ccc5c(c4)OCCO5)C(C)C)ncnc3[nH]2)cn1` [ASAP-0008490] the CC50 at 24 h (in vitro [1]) was greater than 20 µM, the CC50 (in vitro [2]; ASAP-0008327-001=ASAP-0008490-001) was greater than 50 µM and the perc_max_measured [3] was 95.537% and 100.014%. It also gave an EC50 [3] of 4.51 µM, an EC90 [3] greater than 20 µM and a CC50 (iPSC pneumocytes; [8]) greater than 50 µM. For the same compound, the cc10 (iPSC pneumocytes; [8]) was greater than 50.0 µM, the perc_max_measured (iPSC pneumocytes; [8]) was 94.665% and the perc_min_measured (iPSC pneumocytes; [8]) was 63.131%. For the same compound, the CC50 (HeLa-ACE2 cells) was greater than 20 µM, the cc10 (HeLa-ACE2 cells) was greater than 20.0 µM and the perc_max_measured (HeLa-ACE2 cells; [9]) was 110.055% and 97.495%. For the same compound, the perc_min_measured (HeLa-ACE2 cells; [9]) was 79.698% and 83.505%, the EC50 (SARS-CoV-2) was 15.7 µM and the EC90 (SARS-CoV-2) was 36 µM. For the same compound, the perc_max_measured (SARS-CoV-2) was 160.084% and the perc_min_measured (SARS-CoV-2) was 9.251%.
With `CC(C)[C@@H](Nc1ncnc2[nH]c(-c3cnn(C)c3C#N)cc12)c1ccc2c(c1)OCCO2` (racemic) [ASAP-0008275] the solubility_mean [4] was 17 µM (≈ 7.3 µg/mL), the CC50 at 24 h (in vitro [1]) was greater than 50 µM and the CC50 (in vitro [2]; ASAP-0008327-001=ASAP-0008275-001) was greater than 50 µM. For the same compound, the perc_max_measured [3] was 109.522%, the perc_min_measured [3] was 3.811% and 0.0% and the EC50 [3] was 1.73 µM and 1.72 µM. For the same compound, the EC90 [3] was 4.31 µM and 4.23 µM, the CC50 (iPSC pneumocytes; [8]) was greater than 50 µM and the cc10 (iPSC pneumocytes; [8]) was 13.408 µM. The perc_max_measured (iPSC pneumocytes; [8]) was 110.873% and 99.023%, the perc_min_measured (iPSC pneumocytes; [8]) was 69.382% and 78.095% and the clint [5, 10] was 218.0 µL/min/mg. It also gave a perc_remaining [5, 10] of 3.0%, a t_half [5, 10] of 7.7 min and a perc_remaining_no_cofactor ([5]; In vitro mouse liver microsomal stability; no cofactor) of 97.0%. It also gave a CC50 (HeLa-ACE2 cells; [9]) greater than 50 µM, a cc10 (HeLa-ACE2 cells; [9]) greater than 50.0 µM and a perc_max_measured (HeLa-ACE2 cells; [9]) of 136.373%. For the same compound, the perc_min_measured (HeLa-ACE2 cells; [9]) was 77.442%, the perc_max_measured (SARS-CoV-2) was 108.15% and 116.315% and the perc_min_measured (SARS-CoV-2) was 1.229% and 8.563%. It also gave a logd (LogD) of 3.0, a papp_a_to_b_mean [6, 11] of 4.2 ×10⁻⁶ cm/s and a perc_recovery_a_to_b_mean [6, 11] of 36.0%. It also gave a clint [7] of 74.0 µL/min/mg, a perc_remaining [7] of 25.0% and a t_half [7] of 22.6 min. It also gave a perc_remaining_no_cofactor [7] of 111.0%.
With `CNCc1cc(-c2cc3c(N[C@@H](c4ccc5c(c4)S(=O)(=O)NCC5)C(C)C)ncnc3[nH]2)co1` [ASAP-0011243] the solubility_mean [4] was 372 µM (≈ 179 µg/mL), the CC50 at 24 h (in vitro [1]) was greater than 20 µM and the CC50 (in vitro [2]; ASAP-0008327-001=ASAP-0011243-001) was greater than 50 µM. The perc_max_measured [3] was 99.818%, the perc_min_measured [3] was 81.688% and the EC50 [3] was greater than 20 µM. It also gave an EC90 [3] greater than 20 µM, a CC50 (iPSC pneumocytes) greater than 50 µM and a cc10 (iPSC pneumocytes) greater than 50.0 µM. The perc_max_measured (iPSC pneumocytes) was 101.3%, the perc_min_measured (iPSC pneumocytes) was 90.486% and the clint [5, 10] was 42.0 µL/min/mg. The perc_remaining [5, 10] was 49.0%, the t_half [5, 10] was 40.0 min and the perc_remaining_no_cofactor [5, 12] was 95.0%. For the same compound, the CC50 (HeLa-ACE2 cells; [9]) was greater than 20 µM, the cc10 (HeLa-ACE2 cells; [9]) was greater than 20.0 µM and the perc_max_measured (HeLa-ACE2 cells; [9]) was 96.42%. For the same compound, the perc_min_measured (HeLa-ACE2 cells; [9]) was 81.709%, the EC50 (SARS-CoV-2) was 30.7 µM and the EC90 (SARS-CoV-2) was greater than 50 µM. It also gave a perc_max_measured (SARS-CoV-2) of 102.14%, a perc_min_measured (SARS-CoV-2) of 30.967% and a logd (LogD) of 1.9. For the same compound, the papp_a_to_b_mean [6, 11] was 1.2 ×10⁻⁶ cm/s, the perc_recovery_a_to_b_mean [6, 11] was 76.5% and the clint [7] was 46.0 µL/min/mg. The perc_remaining [7] was 47.0%, the t_half [7] was 35.9 min and the perc_remaining_no_cofactor [7] was 93.0%.
Compound `CC(C)[C@@H](Nc1ncnc2[nH]c(-c3cnn(CC(N)=O)c3)cc12)c1ccc2c(n1)OCCO2` (single isomer, unassigned) [ASAP-0012315] has a solubility_mean [4] of 395 µM (≈ 177 µg/mL), a CC50 (in vitro [2]; ASAP-0008327-001=ASAP-0012315-001) greater than 50 µM and a perc_max_measured [3] of 122.738%. It also gave a perc_min_measured [3] of 101.22%, an EC50 [3] greater than 20 µM and an EC90 [3] greater than 20 µM. The CC50 (iPSC pneumocytes) was greater than 50 µM, the cc10 (iPSC pneumocytes) was greater than 50.0 µM and the perc_max_measured (iPSC pneumocytes) was 105.354%. For the same compound, the perc_min_measured (iPSC pneumocytes) was 100.058%, the clint [5, 10] was 9.0 µL/min/mg and the perc_remaining [5, 10] was 90.0%. The t_half [5, 10] was 182.3 min, the perc_remaining_no_cofactor [5, 12] was 102.0% and the perc_max_measured (HeLa-ACE2 cells; [9]) was 91.832%. It also gave a perc_min_measured (HeLa-ACE2 cells; [9]) of 81.293%, an EC50 (SARS-CoV-2) greater than 50 µM and an EC90 (SARS-CoV-2) greater than 50 µM. For the same compound, the perc_max_measured (SARS-CoV-2) was 94.962%, the perc_min_measured (SARS-CoV-2) was 56.467% and the logd (LogD) was 2.4. The papp_b_to_a_mean [6, 13] was 2.3 ×10⁻⁶ cm/s and 3.5 ×10⁻⁶ cm/s, the perc_recovery_a_to_b_mean [6, 13] was 59.0% and 72.1% and 66.1% and the perc_recovery_b_to_a_mean [6, 13] was 78.3% and 92.2%. The perc_recovery_a_to_b_inhibitor_mean ([6]; with inhibitor Cyclosporin A) was 64.5%, the perc_recovery_a_to_b_inhibitor_mean ([6]; with inhibitor Verapamil) was 96.8% and the perc_recovery_b_to_a_inhibitor_mean ([6]; with inhibitor Cyclosporin A) was 57.4%. It also gave a perc_recovery_b_to_a_inhibitor_mean ([6]; with inhibitor Verapamil) of 85.3%, a clint [7] of 18.0 µL/min/mg and a perc_remaining [7] of 77.0%. The t_half [7] was 91.8 min and the perc_remaining_no_cofactor [7] was 95.0%.
With `CC(C)[C@@H](Nc1ncnc2[nH]c(C(=O)N[C@H]3CCN(C)C3)cc12)c1ccc2c(c1)S(=O)(=O)CCC2` (single isomer, unassigned) [ASAP-0012336] the solubility_mean [4] was 392 µM (≈ 195 µg/mL), the CC50 (in vitro [2]; ASAP-0008327-001=ASAP-0012336-001) was greater than 50 µM and the perc_max_measured [3] was 102.123%. For the same compound, the perc_min_measured [3] was 84.181%, the EC50 [3] was greater than 20 µM and the EC90 [3] was greater than 20 µM. For the same compound, the CC50 (iPSC pneumocytes) was greater than 50 µM, the cc10 (iPSC pneumocytes) was greater than 50.0 µM and the perc_max_measured (iPSC pneumocytes) was 106.87%. For the same compound, the perc_min_measured (iPSC pneumocytes) was 91.721%, the clint [5, 10] was 4.0 µL/min/mg and the perc_remaining [5, 10] was 92.0%. It also gave a t_half [5, 10] of 433.8 min, a perc_remaining_no_cofactor [5, 12] of 92.0% and a CC50 (HeLa-ACE2 cells; [9]) greater than 20 µM. It also gave a cc10 (HeLa-ACE2 cells; [9]) greater than 20.0 µM, a perc_max_measured (HeLa-ACE2 cells; [9]) of 90.418% and a perc_min_measured (HeLa-ACE2 cells; [9]) of 77.593%. It also gave an EC50 (SARS-CoV-2) greater than 50 µM, an EC90 (SARS-CoV-2) greater than 50 µM and a perc_max_measured (SARS-CoV-2) of 114.501%. It also gave a perc_min_measured (SARS-CoV-2) of 59.767%, a logd (LogD) of 1.5 and a papp_b_to_a_mean [6, 13] of 0.038 ×10⁻⁶ cm/s. The efflux_ratio [6, 13] was 0.5, the perc_recovery_a_to_b_mean [6, 13] was 53.5% and 74.5% and the perc_recovery_b_to_a_mean [6, 13] was 66.7%. For the same compound, the perc_recovery_a_to_b_inhibitor_mean ([6]; with inhibitor Verapamil) was 95.9%, the perc_recovery_b_to_a_inhibitor_mean ([6]; with inhibitor Verapamil) was 77.9% and the clint [7] was 26.0 µL/min/mg. It also gave a perc_remaining [7] of 66.0%, a t_half [7] of 64.0 min and a perc_remaining_no_cofactor [7] of 107.0%.
